These results are taken from patent US12138341B1 (Technical Institute of Physics and Chemistry, CAS, priority 2023, dated 2024).

A short description of the data set: In vivo pharmacokinetics experiment of CBD microneedle in a rat. Conditions: gavage group (oral administration), FIG. 7. On the set-up: species or system SD rat.

With `C=C(C)[C@@H]1CCC(C)=C[C@H]1c1c(O)cc(CCCCC)cc1O` [CBD, cannabidiol], the “time drug concentration in plasma is maintained” value stood at 2 days.
